# Read-outs that look alike come from different tables or passages of the source.
# Assay: Rat PK evaluation
# Format: in vivo
# Conditions: SD rats; for Vz_obs iv (apparent distribution volume) / bioavailability / AUC(0-t) / clearance / half-life: n = 3; for bioavailability / AUC(0-t) / clearance / half-life / Tmax: rat, plasma; for bioavailability: read-out: F % (absolute bioavailability); for clearance: read-out: Cl_obs iv (clearance rate) (converted); for Tmax: n = 3, median, read-out: Tmax po (time to peak plasma concentration)
# Protocol: Assay 2: Rat PK Evaluation for the Compounds of the Present Invention
# Animal Administration and Sample Collection:
# (§1) The test compounds 14, 15, 16, 20, 29, 30, 31, 32, 33, 34, 36, 37, 47 and 48 were dissolved in 5% DMSO+20% (30% solutol)+75% saline to prepare the compound solutions. Each of the compound solutions was intragastrically administered to SD rats at a dose of 5.0 mg/kg. The time points of blood collection were: 15 minutes, 30 minutes, 1 hour, 2 hours, 4 hours, 6 hours, 8 hours, 24 hours, 30 hours, and 48 hours.
# The test compounds 38, 39, 40 and 41 were dissolved in 5% NMP+5% Tween-80+90% saline to prepare the compound solutions. Each of the compound solutions was intragastrically administered to SD rats at a dose of 5.0 mg/kg. The time points of blood collection were: 15 minutes, 30 minutes, 1 hour, 2 hours. 4 hours, 6 hours, 8 hours, 24 hours, 30 hours, and 48 hours.
# as §1, with “was” for “was intragastrically”, “administered by intravenous bolus injection” for “administered”, “1” for “5.0”, “were: 5 minutes,” for “were:”, “hours,” for “hours, 30 hours,”
# The test compounds 38, 39, 40 and 41 were dissolved in 5% NMP+5% Tween-80+90% saline to prepare the compound solutions. Each of the compound solutions was administered by intravenous bolus injection to SD rats at a dose of 1 mg/kg. The time points of blood collection were: 5 minutes, 15 minutes, 30 minutes, 1 hour, 2 hours, 4 hours, 6 hours, 8 hours, 24 hours, and 48 hours.
# The animal was fixed. The tail was heated in a water bath pot 10 minutes before each time point. About 100 μL of blood was collected through the tail vein. The blood was collected and placed in an anti-coagulation tube containing EDTA-K2. The blood sample was centrifuged at 8000 rpm for 6 minutes at 4° C. to obtain a plasma sample. The plasma was prepared within 30 minutes after the blood collection. The plasma was stored in a −80° C. refrigerator before testing.
# The sample to be tested was taken out from the −80° C. refrigerator, naturally melted at room temperature and vortexed for 5 minutes. 20 μL of plasma sample was accurately pipetted into a 1.5 mL centrifuge tube. 200 μL of an internal standard working solution (a solution of tolbutamide in methanol) having a concentration of 100 ng/mL was added and mixed well. The mixture was vortexed for 5 minutes, and centrifuged at 12000 rpm for 5 minutes. 50 μL of the supernatant was accurately pipetted into a 96-well plate pre-filled with 150 μL/well of water. The plate was vortexed for 5 minutes and mixed well, and then the LC-MS/MS determination and analysis were performed.
# The concentration of the test substance was output using Analyst 1.6.3 from AB Company. Parameters such as mean, standard deviation, and coefficient of variation were calculated with Microsoft Excel (direct outputs from Analyst 1.6.3 were not calculated), and the PK parameters were calculated using Pharsight Phoenix 6.1 software NCA (Tmax was the median).
# [1] = IV 1 mg/kg, read-out: AUClast iv (area under the drug-time curve from 0 to 48 hours)
# [2] = IV 1 mg/kg, read-out: tz1/2 iv (terminal elimination half-life) (converted)
# [3] = PO 5 mg/kg, read-out: AUClast po (area under the drug-time curve from 0 to 48 hours)
# [4] = PO 5 mg/kg, read-out: tz1/2 po (terminal elimination half-life) (converted)
Compound,Vz_obs iv (apparent distribution volume) (IV 1 mg/kg) [L/kg],"bioavailability (IV 1 mg/kg, PO 5 mg/kg) [%]",AUC(0-t) [1] [ng·h/mL],clearance (IV 1 mg/kg) [mL/min/kg],half-life [2] [h],Tmax (PO 5 mg/kg) [h],AUC(0-t) [3] [ng·h/mL],half-life [4] [h]
"COc1cc2nccc(Oc3ncc(NC(=O)c4nn(C(C)C)cc(-c5ccc(F)cc5)c4=O)cn3)c2cc1OC [Compound 34, N-(2-((6,7-dimethoxyquinolin-4-yl)oxy)pyrimidine-5-yl)-5-para-fluorophenyl-1-isopropyl-4-oxo-1,4-dihydropyridazine-3-carboxamide]",0.15,80.4,81000,0.217,7.46,4,321000,8.31
"COc1cc2nccc(Oc3cnc(NC(=O)c4cn(C(C)C)cc(-c5ccc(F)cc5)c4=O)nc3)c2cc1OC [Compound 20, N-(5-((6,7-dimethoxyquinolin-4-y)oxy)pyrimidine-2-yl)-5-(4-fluorophenyl)-1-isopropyl-4-oxo-1,4-dihydropyridin-3-carboxamide]",0.18,53.3,29100,0.667,3.1,6,77900,5.4

# From patent publication US20220073496A1, “NOVEL QUINOLINE DERIVATIVE INHIBITOR” (Nanjing Transthera Biosciences Co., Ltd., priority 2018, published 2022)
